According to patent US10336720B2, “Cyclic carbonate monomer containing double iodine, biodegradable polymer prepared thereby and use” (SOOCHOW UNIVERSITY, priority 2015, dated 2019):
Structures can show the parent of a compound that is named as a salt.

Tests used:
tumor site = assay: CT imaging of nano-vesicles in mice (Example 20); format: in vivo; conditions: tail vein, circulation after 40 minutes
Description: By the changing CT value in FIG. 10 can be seen, after a 4 hour cycle, CT change of cRGD20/CLPs was the highest, followed by CLPs, and lowest in the control group, after 7 hours of circulation, CT value of cRGD20/CLPs is 2 times and 10 times than the other two groups.

[1] = Blood circulation of drug-loaded vesicles; conditions: nude Balb/C, mouse, whole blood, intravenous, 10 mg/kg
Description: The blood samples (approximately 10 μL) were collected at time points of 0, 0.25, 0.5, 1, 2, 4, 8, 12 and 24 h. The exact weight of the blood was determined through weighing by difference method, then 100 μL Triton (concentration: 1%) and 500 μL DMF (which contained 20 mM DTT, 1 M HCl) were added. The sample was subjected to extraction, followed by centrifugation (20,000 rpm, 20 min).

[2] = Maximum tolerated dose (MTD); conditions: nude Balb/C, mouse, in vivo
Text: Nude Balb/C mice with body weight of about 18-20 g, aged 4-6 weeks were used. […] The standard for MTD was non accidental death in mice or weight less than 15% in mice.

B16 tumor = assay: Antitumor effect and weight change in mice bearing B16 tumor; format: in vivo, Nude Balb/C mice
Text: After 2 weeks, when the size of the tumors was 30-50 mm^3, the experiment began. […] From Day 0 to 18, the body weight of the mice in each group was weighed every two days. The size of the tumor was precisely measured with Vernier scale, where the method for calculating the volume of tumors was: V=(L×W×H)/2, (where L was the length of the tumor, W was the width of the tumor, H was the thickness of the tumor). The survival of the mice was observed continuously till the 45th day.

| Compound | contrast signal in the bladder (tumor site) | half-life [1] [min] | MTD at 10 days [2] [mg/kg] | tumor growth (B16 tumor; DOX.HCl 10 mg/kg at 0, 4, 8, 12 day, 19-day treatment) | body weight decrease (B16 tumor; in 7 days, DOX.HCl 10 mg/kg) [%] |
| --- | --- | --- | --- | --- | --- |
| CC(=O)N(CC(O)CO)c1c(I)c(C(=O)NCC(O)CO)c(I)c(C(=O)NCC(O)CO)c1I (centres unmarked) [iohexol] | contrast strong signal | – | – | – | – |
| COc1cccc2c1C(=O)c1c(O)c3c(c(O)c1C2=O)C[C@@](O)(C(=O)CO)C[C@@H]3O[C@H]1C[C@H](N)[C@H](O)[C@H](C)O1 [DOX.HCl, doxorubicin hydrochloride] | – | 7.8 | < 10 | may also inhibit tumor expansion | 20 |
